According to patent US6486136B1, “Combinations comprising VX478, zidovudine and/or 1592U89 for use in the treatment of HIV” (SmithKline Beecham Corporation, priority 1996, dated 2002):
Like-named read-outs stand apart in the source and are kept apart here.

System: HIV-1 Strain IIIB
Assay: Double combination dose response matrices in MT2-cells infected with HIV-1 Strain IIIB (MacSynergy II / Greco analysis)
Format: cell-based
Settings: Greco model estimate; for EC50: MT2-cells, HIV-1 IIIB, medium with 10% fetal bovine serum plus α1 acid glycoprotein (1 mg/ml) and albumin (40 mg/ml)
Description: Triplicate in vitro dose response matrices were prepared using MT2-cells infected with HIV-1 Strain IIIB. In order to account for the effects of protein binding, tissue culture medium with 10% fetal bovine serum was supplemented with the human serum proteins α1, acid glycoprotein (1 mg/ml) and albumin (40 mg/ml). The 3-D drug interaction surface for 1592U89 and 141W94 was constructed using the program MacSynergy II. As analyzed relative to a Bliss Independence null reference model, this combination was synergistic with volumes of synergy exceeding 100 (99% confidence). Analysis of the data set with a fully parametric form of an equation for the quantitation of drug interaction developed by Greco et al. also indicated synergy. The parameters, with 95% confidence intervals are shown below: EC50 is the half maximal response concentration. “m” is the slope parameter. Alpha is the synergy parameter.

EC50 (Human immunodeficiency virus 1, read-out: EC50,141w) | SMILES | m141w (slope parameter) (same matrix) | EC50 (read-out: EC50,1592u) | m1592u (slope parameter) (same matrix)
394 nM | CC(C)CN(C[C@@H](O)[C@H](Cc1ccccc1)NC(=O)O[C@H]1CCOC1)S(=O)(=O)c1ccc(N)cc1 (relative stereo) [141W94, 3S-[3R*(1R*,2S*)]-[3-[[(4-aminophenyl)sulphonyl](2-methylpropyl)-amino]-2-hydroxy-1-phenylmethyl)propyl]carbamic acid, tetrahydro-3-furanyl ester] | 2.20 |  | 
 | Nc1nc(NC2CC2)c2ncn([C@H]3C=C[C@@H](CO)C3)c2n1 (relative stereo) [1592U89, (1S,4R)-cis-4-[2-amino-6-(cyclopropylamino)-9H-purin-9-yl]-2-cyclopentene-1-methanol] |  | 626 nM | 1.60
